Here are results for 34 molecules from patent US8278345B2, “Inhibitors of glutaminyl cyclase” (Probiodrug AG, priority 2006, dated 2012).

Like-named read-outs stand apart in the source and are kept apart here.

The target of the test is hQC (Homo sapiens, UniProt Q16769). The experiment in a line: Inhibitor assay for glutaminyl cyclase activity (fluorometric, H-Gln-βNA / H-Gln-AMC). Type of test: biochemical. The procedure, abridged: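 Ki values came from fitting progress curves to a competitive inhibition model; rapid screens used 4 mM inhibitor with substrate at KM. QC activity was read at 30 °C via auxiliary pyroglutamyl aminopeptidase releasing βNA (0.2 mM H-Gln-βNA, 0.2 M Tris pH 8.0, 20 mM EDTA) or AMC (0.05 M Tris pH 8.0, 5 mM EDTA).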

Where [1] appears, read: compound from preparative synthesis, purified, read-out: IC50 hQC.

Sequence of hQC (Q16769 29-361): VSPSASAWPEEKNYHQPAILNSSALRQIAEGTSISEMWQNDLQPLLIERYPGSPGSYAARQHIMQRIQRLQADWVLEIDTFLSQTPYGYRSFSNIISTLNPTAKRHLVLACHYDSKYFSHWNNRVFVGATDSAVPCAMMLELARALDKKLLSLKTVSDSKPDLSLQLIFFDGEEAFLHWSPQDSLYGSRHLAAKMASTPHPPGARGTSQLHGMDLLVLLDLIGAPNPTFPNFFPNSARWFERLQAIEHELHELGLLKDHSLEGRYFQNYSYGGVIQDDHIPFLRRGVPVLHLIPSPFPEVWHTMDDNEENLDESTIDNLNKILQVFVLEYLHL

`O=C(O)c1ccc(C2C(C(=O)C3CC3)=C(O)C(=O)N2c2ccc3[nH]cnc3c2)o1` (stereo not shown) [Compound 308, 5-[1-(1H-Benzoimidazol-5-yl)-3-cyclopropanecarbonyl-4-hydroxy-5-oxo-2,5-dihydro-1H-pyrrol-2-yl]-furan-2-carboxylic acid]: the concentration for half-maximal inhibition (IC50) (read-out: IC50) is 400 nM.
Same read-out and setting: the result for `O=C1C(O)=C(c2c[nH]c3ccccc23)C(C(O)CO)N1CCCn1ccnc1` (stereo not shown) [Compound 117, 5-(1,2-Dihydroxy-ethyl)-3-hydroxy-1-(3-imidazol-1-yl-propyl)-4-(1H-indol-3-yl)-1,5-dihydro-pyrrol-2-one] reads 400 nM; that for `Cc1cccc(C2C(C(=O)c3ccsc3)=C(O)C(=O)N2c2ccc3[nH]cnc3c2)n1` (stereo not shown) [Compound 306, 1-(1H-Benzoimidazol-5-yl)-3-hydroxy-5-(6-methyl-pyridin-2-yl)-4-(thiophene-3-carbonyl)-1,5-dihydro-pyrrol-2-one], 400 nM; that for `CCCC1C(C(C)C)=C(O)C(=O)N1CCCn1ccnc1` (stereo not shown) [Compound 55, 3-Hydroxy-1-(3-imidazol-1-yl-propyl)-4-isopropyl-5-propyl-1,5-dihydro-pyrrol-2-one], 5800 nM.
Take `O=C1C(O)=C(c2ccccc2)C(C(O)CO)N1CCCn1ccnc1` (stereo not shown) [Compound 82, 5-(1,2-Dihydroxy-ethyl)-3-hydroxy-1-(3-imidazol-1-yl-propyl)-4-phenyl-1,5-dihydro-pyrrol-2-one]: the IC50 (read-out: IC50) was found to be 3100 nM.
Take `CC(C)C1=C(O)C(=O)N(c2ccc3[nH]cnc3c2)C1c1c(F)ccc(Cl)c1F` (stereo not shown) [Compound 365, 1-(1H-Benzoimidazol-5-yl)-5-(3-chloro-2,6-difluoro-phenyl)-3-hydroxy-4-isopropyl-1,5-dihydro-pyrrol-2-one]: the half-maximal inhibitory concentration (IC50) (read-out: IC50) came out at 8050 nM.
In the case of `CC1C(c2ccc(O)cc2)=C(O)C(=O)N1CCCn1ccnc1` (stereo not shown) [Compound 160, 3-Hydroxy-4-(4-hydroxy-phenyl)-1-(3-imidazol-1-yl-propyl)-5-methyl-1,5-dihydro-pyrrol-2-one], where the note is “read-out: IC50”, the concentration for half-maximal inhibition (IC50) worked out at 400 nM.
On the same count and under the same terms, the result for `Cc1cccc(C2C(C(=O)C3CC3)=C(O)C(=O)N2c2ccc3[nH]cnc3c2)n1` (stereo not shown) [Compound 316, 1-(1H-Benzoimidazol-5-yl)-4-cyclopropanecarbonyl-3-hydroxy-5-(6-methyl-pyridin-2-yl)-1,5-dihydro-pyrrol-2-one] reads 580 nM; that for `O=C1C(O)=C(F)C(c2ccccc2F)N1c1ccc2[nH]cnc2c1` (stereo not shown) [Compound 462, 1-(1H-Benzoimidazol-5-yl)-4-fluoro-5-(2-fluoro-phenyl)-3-hydroxy-1,5-dihydro-pyrrol-2-one], 4990 nM.
With `Cc1ccc(C2C(c3ccc(O)cc3)=C(O)C(=O)N2CCCn2ccnc2)cc1C` (stereo not shown) [Compound 158, 5-(3,4-Dimethyl-phenyl)-3-hydroxy-4-(4-hydroxy-phenyl)-1-(3-imidazol-1-yl-propyl)-1,5-dihydro-pyrrol-2-one], the IC50 by setting is: under setting [1], 214 nM; (read-out: IC50) 40 nM.
`O=C1C(O)=C(c2cccc(O)c2)C(c2cc[nH]n2)N1CCCn1ccnc1` (stereo not shown) [Compound 8, 3-Hydroxy-4-(3-hydroxy-phenyl)-1-(3-imidazol-1-yl-propyl)-5-(1H-pyrazol-3-yl)-1,5-dihydro-pyrrol-2-one]: the IC50 (read-out: IC50) turned out to be 9400 nM.
As to `CC(C)C1=C(O)C(=O)N(CCCn2ccnc2)C1C1CCC=CO1` (stereo not shown) [Compound 66, 5-(3,4-Dihydro-2H-pyran-2-yl)-3-hydroxy-1-(3-imidazol-1-yl-propyl)-4-isopropyl-1,5-dihydro-pyrrol-2-one], the IC50 (read-out: IC50) came to 2200 nM.
Same read-out and setting: the result for `CCCCCC1=C(O)C(=O)N(CCCn2ccnc2)C1C(F)(F)F` (stereo not shown) [Compound 203, 3-Hydroxy-1-(3-imidazol-1-yl-propyl)-4-pentyl-5-trifluoromethyl-1,5-dihydro-pyrrol-2-one] reads 40 nM.
As to `Cc1cc(C2C(c3ccccc3)=C(O)C(=O)N2c2ccc3[nH]cnc3c2)oc1C` (stereo not shown) [Compound 395, 1-(1H-Benzoimidazol-5-yl)-5-(4,5-dimethyl-furan-2-yl)-3-hydroxy-4-phenyl-1,5-dihydro-pyrrol-2-one], the IC50 (read-out: IC50) stood at 1390 nM.
Take `CC(C)C1=C(O)C(=O)N(CCCn2ccnc2)C1/C=C/c1ccccc1` (stereo not shown) [Compound 64, 3-Hydroxy-1-(3-imidazol-1-yl-propyl)-4-isopropyl-5-(styryl)-1,5-dihydro-pyrrol-2-one]: the 50% inhibitory concentration (IC50) (read-out: IC50) was determined as 3100 nM.
Turning to `Cc1ccc(C2C(c3ccccc3)=C(O)C(=O)N2CCCn2ccnc2)cc1` (stereo not shown) [Compound 77, 3-Hydroxy-1-(3-imidazol-1-yl-propyl)-4-phenyl-5-p-tolyl-1,5-dihydro-pyrrol-2-one], the 50% inhibitory concentration (IC50) by setting is: under setting [1], 1910 nM; (read-out: IC50) 40 nM.
For `O=C1C(O)=C(c2c[nH]c3ccccc23)C(c2ccccc2F)N1CCCn1ccnc1` (stereo not shown) [Compound 144, 5-(2-Fluoro-phenyl)-3-hydroxy-1-(3-imidazol-1-yl-propyl)-4-(1H-indol-3-yl)-1,5-dihydro-pyrrol-2-one], in that order: 1040 nM and 40 nM.
`CC1=C(O)C(=O)N(CCCn2ccnc2)C1C1=CCCCC1` (stereo not shown) [Compound 36, 5-Cyclohex-1-enyl-3-hydroxy-1-(3-imidazol-1-yl-propyl)-4-methyl-1,5-dihydro-pyrrol-2-one]: the IC50 (read-out: IC50) came to 2200 nM.
On the same count and under the same terms, the same measure for `O=C1C(O)=C(c2c[nH]c3ccccc23)C(c2cc(Cl)cc(Cl)c2O)N1CCCn1ccnc1` (stereo not shown) [Compound 113, 5-(3,5-Dichloro-2-hydroxy-phenyl)-3-hydroxy-1-(3-imidazol-1-yl-propyl)-4-(1H-indol-3-yl)-1,5-dihydro-pyrrol-2-one]: 1300 nM; for `O=C(O)CC1=C(O)C(=O)N(c2ccc3[nH]cnc3c2)C1c1csc2ccccc12` (stereo not shown) [Compound 408, [2-Benzo[b]thiophen-3-yl-1-(1H-benzoimidazol-5-yl)-4-hydroxy-5-oxo-2,5-dihydro-1H-pyrrol-3-yl]-acetic acid]: 6430 nM.
On the same count and under the same terms, the same measure for `Cn1cc(C2C(c3c[nH]c4ccccc34)=C(O)C(=O)N2c2ccc3[nH]cnc3c2)c2ccccc21` (stereo not shown) [Compound 329, 1-(1H-Benzoimidazol-5-yl)-3-hydroxy-4-(1H-indol-3-yl)-5-(1-methyl-1H-indol-3-yl)-1,5-dihydro-pyrrol-2-one]: 6250 nM; for `CC1=C(O)C(=O)N(CCCn2ccnc2)C1c1ccccn1` (stereo not shown) [Compound 43, 3-Hydroxy-1-(3-imidazol-1-yl-propyl)-4-methyl-5-pyridin-2-yl-1,5-dihydro-pyrrol-2-one]: 2200 nM; for `O=C1C(O)=C(c2c[nH]c3ccccc23)C(c2ccccn2)N1CCCn1ccnc1` (stereo not shown) [Compound 135, 3-Hydroxy-1-(3-imidazol-1-yl-propyl)-4-(1H-indol-3-yl)-5-pyridin-2-yl-1,5-dihydro-pyrrol-2-one]: 40 nM.
On to `Cc1ccc(C2C(c3cccc(O)c3)=C(O)C(=O)N2CCCn2ccnc2)o1` (stereo not shown) [Compound 11, 3-Hydroxy-4-(3-hydroxy-phenyl)-1-(3-imidazol-1-yl-propyl)-5-(5-methyl-furan-2-yl)-1,5-dihydro-pyrrol-2-one], for which, where the note is “read-out: IC50”, the IC50 was found to be 2200 nM.
On the same count and under the same terms, the result for `O=C1C(O)=C(c2cccc(O)c2)C(c2ccccc2O)N1CCCn1ccnc1` (stereo not shown) [Compound 14, 3-Hydroxy-5-(2-hydroxy-phenyl)-4-(3-hydroxy-phenyl)-1-(3-imidazol-1-yl-propyl)-1,5-dihydro-pyrrol-2-one] reads 2200 nM; that for `O=C1C(O)=C(c2ccccc2)C(c2ccc(CO)o2)N1CCCn1ccnc1` (stereo not shown) [Compound 91, 3-Hydroxy-5-(5-hydroxymethyl-furan-2-yl)-1-(3-imidazol-1-yl-propyl)-4-phenyl-1,5-dihydro-pyrrol-2-one], 1300 nM.
Regarding `CC1=C(O)C(=O)N(c2ccc3nc[nH]c3c2)C1c1c(F)cccc1F` (stereo not shown) [Compound 473, 1-(1H-benzo[d]imidazol-6-yl)-5-(2,6-difluorophenyl)-3-hydroxy-4-methyl-1H-pyrrol-2(5H)-one], affinity (compound from preparative synthesis, purified) was put at a Ki of 29.2 nM. The half-maximal inhibitory concentration (IC50) (read-out: IC50) stood at 259 nM.
Regarding `O=C1C(O)=C(c2c[nH]c3ccccc23)C(C2CCC=CO2)N1CCCn1ccnc1` (stereo not shown) [Compound 128, 5-(3,4-Dihydro-2H-pyran-2-yl)-3-hydroxy-1-(3-imidazol-1-yl-propyl)-4-(1H-indol-3-yl)-1,5-dihydro-pyrrol-2-one], the half-inhibitory concentration (IC50) was determined as 804 nM under setting [1] and 40 nM (read-out: IC50).
`O=C1C(O)=C(c2ccccc2)C(c2ccc3cccc(O)c3n2)N1c1ccc2[nH]cnc2c1` (stereo not shown) [Compound 398, 1-(1H-Benzoimidazol-5-yl)-3-hydroxy-5-(8-hydroxy-quinolin-2-yl)-4-phenyl-1,5-dihydro-pyrrol-2-one]: the IC50 (read-out: IC50) was found to be 40 nM.
On to `CC(=O)C1=C(O)C(=O)N(c2ccc3[nH]cnc3c2)C1C1=CCCCC1` (stereo not shown) [Compound 312, 4-Acetyl-1-(1H-benzoimidazol-5-yl)-5-cyclohex-1-enyl-3-hydroxy-1,5-dihydro-pyrrol-2-one], for which, under “read-out: IC50”, the IC50 was determined as 1840 nM.
As to `CCCCCC1=C(O)C(=O)N(CCCn2ccnc2)C1c1ccc(OC)cc1` (stereo not shown) [Compound 193, 3-Hydroxy-1-(3-imidazol-1-yl-propyl)-5-(4-methoxy-phenyl)-4-pentyl-1,5-dihydro-pyrrol-2-one], the concentration for half-maximal inhibition (IC50) came out at 1040 nM under setting [1] and 40 nM (read-out: IC50).
For the molecule `O=C1C(O)=C(c2ccccc2)C(c2cc3ccccc3nc2Cl)N1c1ccc2[nH]cnc2c1` (stereo not shown) [Compound 373, 1-(1H-Benzoimidazol-5-yl)-5-(2-chloro-quinolin-3-yl)-3-hydroxy-4-phenyl-1,5-dihydro-pyrrol-2-one], the IC50 (read-out: IC50) was found to be 4090 nM.
Same read-out and setting: the same measure for `CCC1=C(O)C(=O)N(CCCn2ccnc2)C1c1ccc2[nH]ccc2c1` (stereo not shown) [Compound 228, 4-Ethyl-3-hydroxy-1-(3-imidazol-1-yl-propyl)-5-(1H-indol-5-yl)-1,5-dihydro-pyrrol-2-one]: 40 nM.
Still for that read-out and setting: the result for `CC1=C(O)C(=O)N(CCCn2ccnc2)C1c1cccs1` (stereo not shown) [Compound 45, 3-Hydroxy-1-(3-imidazol-1-yl-propyl)-4-methyl-5-thiophen-2-yl-1,5-dihydro-pyrrol-2-one] reads 3100 nM.
